Patent US11420962B2, “Indene derivatives useful in treating pain and inflammation” (TARO PHARMACEUTICALS INC., priority 2018, dated 2022)

Assays:
Mice (male, C57Bl/6) = experiment: Pulmonary LPS challenge assay in mice; type: in vivo; conditions: 30 mg/kg, oral gavage once daily for three days; BALF 24 h post LPS
Protocol: Mice (male, C57Bl/6) were acclimatized for a period of about 7 days before initiation of the experiment and randomized on the day prior to treatment. Mice received vehicle or representative test compounds of the invention (i.e., test compounds) once daily for three days by oral gavage on Day −2, Day −1 and on Day 0 (the last dose being 1 h prior to LPS administration). One group of mice received the reference standard, dexamethasone, once, IP on Day 0 at 1 h prior to LPS administration. Pulmonary inflammation was induced in all animals except the sham control animals by intratracheal instillation of 20 μg LPS per animal in 50 μl saline. Sham control animals received 50 μl saline alone.
Twenty-four hours post LPS administration, animals were euthanized and the trachea was cannulated. Cold Hanks Balanced Salt Solution (HBSS) (SIGMA; Catalogue number: H1387), pH 7.2, was infused into the lungs and bronchoalveolar lavage fluid (BALF) was collected.
Total leukocyte counts were performed from the collected BALF using a mini flow-cytometer and differential counts were performed in cytospin smears stained with Leishman's staining manually. ELISA kits were used for quantification of cytokines in the BALF (TNFα, IL-1β, IL-6 and KC). Reagents, samples and standards were prepared as per kit manual. Total protein analysis in BALF samples were performed using the Biorad protein assay reagent. […]

[1] = test system: Rats (male, Sprague-Dawley); experiment: Rat carrageenan-induced hyperalgesia and paw edema; type: in vivo; conditions: 30 mg/kg, administered at the time of, or 1 h after challenge
Protocol: Representative compounds of the invention (i.e., test compounds) were administered PO, QD for 3 days prior to carrageenan injection, once at 1 h prior to carrageen, or at 5 min or 1 h post-challenge to rats (male, Sprague-Dawley). Rats received either an intraplantar injection of saline (sham) or carrageen (0.1 mL of a 2% solution [w/v]) in the right hind paw. Mechanical hyperalgesia (using an analgesymeter) and paw volume (using a digital plethysmometer) were measured at baseline (0 hr), 2, 4 and 6 h post carrageenan injection for all the animals. Celecoxib, given 1 h prior to carrageen challenge, was used as a reference standard.

[2] = test system: Rats (male, Sprague-Dawley); experiment: Spinal nerve ligation (neuropathic pain); type: in vivo
Source text: Rats (male, Sprague-Dawley) were anaesthetized and placed in a prone position and the left paraspinal muscles were separated from the spinous processes at the L6-S2 levels. The L6 transverse process was carefully removed to visually identify the L4-L6 spinal nerves. The left L5 spinal nerves were isolated and tightly ligated with 6-0 silk thread. The skin was sutured to close the open tissue and animals were allowed to recover for 1 week before pain assessment. Basal readings for mechanical allodynia and thermal hyperalgesia were performed using a dynamic plantar aesthesiometer and plantar test surface, respectively, before surgery. On Day 7 following surgery, mechanical allodynia and thermal hyperalgesia were assessed and animals were randomized into treatment groups based on these baseline readings. […] Thermal hyperalgesia and mechanical allodynia were tested at 0, 60 and 120 minutes post administration of compounds on Days 7 and 14.

[3] = Metabolism by human liver microsomes; type: in vitro ADME; conditions: Table 8; 10 µM, in the presence of NADPH, 1 mg/mL protein
How it was run: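 Compound at 10 μM preincubated 10 min at 37 °C with human liver microsomes (1 mg/mL protein), 100 mM Tris HCl pH 7.5; started with 1 mM NADPH, run 60 min. Percent remaining at 60 min versus 0-time by LC-MS/MS analyte/internal-standard ratio, scored in bands.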

SMILES: C=C1CC[C@H]2[C@H](CN)[C@@H]([C@@]3(C)Cc4cn[nH]c4C[C@@H]3CO)CC[C@]12C [Ia-1, ((5R,6S)-5-((3aS,4R,5S,7aS)-4-(aminomethyl)-7a-methyl-1-methyleneoctahydro-1H-inden-5-yl)-5-methyl-4,5,6,7-tetrahydro-1H-indazol-6-yl)methanol]
- % protection from neutrophilia (Mice (male, C57Bl/6)): 44%
- average increase in the paw withdrawal threshold as compared to the vehicle [1]: 41%
- overall increase in paw withdrawal threshold as compared to the vehicle ([2]; 3 mg/kg): 48%
- overall increase in paw withdrawal threshold as compared to the vehicle ([2]; 10 mg/kg): 62%
- overall increase in paw withdrawal threshold as compared to the vehicle ([2]; 30 mg/kg): 82%
- Scoring (% of drug remaining after 60 minutes, PDR60) [3]: B (a PDR^60 of 61 to 80%)
